In PubChem BioAssay (NCI):
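Each compound was tested at five concentrations against cells in 96-well plates for 48 hours. GI50: concentration for 50% inhibition of growth. TGI is the concentration that stops growth completely.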

Key:
Test in all cases: inhibition of tumour cell growth, NCI panel, 48 h
[1] = test system: HCT-116 colon
[2] = test system: SK-MEL-2 melanoma
[3] = test system: SK-MEL-5 melanoma
[4] = test system: SW-620 colon
[5] = test system: U251 CNS
[6] = test system: KM12 colon
[7] = test system: SN12C renal
[8] = test system: PC-3 prostate
[9] = test system: M14 melanoma
[10] = test system: SNB-19 CNS
[11] = test system: T-47D breast
[12] = test system: ACHN renal
[13] = test system: MDA-MB-231 breast
[14] = test system: UACC-257 melanoma
[15] = test system: LOX IMVI melanoma
[16] = test system: NCI-H460 lung
[17] = test system: HL-60(TB) leukemia
[18] = test system: HT29 colon
[19] = test system: MALME-3M melanoma
[20] = test system: BT-549 breast
[21] = test system: MOLT-4 leukemia
[22] = test system: UACC-62 melanoma
[23] = test system: 786-0 renal
[24] = test system: HS 578T breast
[25] = test system: CAKI-1 renal
[26] = test system: K-562 leukemia
[27] = test system: TK-10 renal
[28] = test system: NCI-H226 lung
[29] = test system: EKVX NSCLC
[30] = test system: NCI/ADR-RES ovarian
[31] = test system: DU-145 prostate
[32] = test system: HCT-15 colon
[33] = test system: A549 NSCLC
[34] = test system: RPMI-8226 leukemia
[35] = test system: OVCAR-5 ovarian
[36] = test system: NCI-H23 lung
[37] = test system: A498 renal
[38] = test system: SF-539 CNS
[39] = test system: COLO 205 colon
[40] = test system: SK-MEL-28 melanoma
[41] = test system: OVCAR-4 ovarian
[42] = test system: HOP-62 NSCLC
[43] = test system: SK-OV-3 ovarian
[44] = test system: HOP-92 NSCLC
[45] = test system: HCC-2998 colon
[46] = test system: SNB-75 CNS
[47] = test system: OVCAR-3 ovarian
[48] = test system: MDA-MB-435
[49] = test system: SF-295 CNS
[50] = test system: CCRF-CEM leukemia
[51] = test system: OVCAR-8 ovarian
[52] = test system: RXF 393 renal
[53] = test system: SR leukemia
[54] = test system: MCF7 breast
[55] = test system: SF-268 CNS

`CCC(=O)c1c(C(F)(F)F)n([O-])c2cc(N3CCNCC3)c(F)cc2[n+]1=O` was tested, and the GI50 [1] was 1.71 µM, the TGI [1] was 13.1 µM and the GI50 [2] was 2.7 µM. The TGI [2] was 11.7 µM, the GI50 [3] was 1.26 µM and the TGI [3] was 3.55 µM. The GI50 [4] was 2.68 µM, the TGI [4] was 17.9 µM and the GI50 [5] was 5.04 µM. The TGI [5] was 19.9 µM, the GI50 [6] was 1.41 µM and the TGI [6] was 15.4 µM. For the same compound, the GI50 [7] was 2.73 µM, the TGI [7] was 14.6 µM and the GI50 [8] was 2.33 µM. It also gave a TGI [8] of 15.8 µM, a GI50 [9] of 3.28 µM and a TGI [9] of 14.2 µM. It also gave a GI50 [10] of 7.31 µM, a TGI [10] of 20.6 µM and a GI50 [11] of 2.81 µM. It also gave a TGI [11] of 19.1 µM, a GI50 [12] of 1.55 µM and a TGI [12] of 13.7 µM. The GI50 [13] was 4.17 µM, the TGI [13] was 17.1 µM and the GI50 [14] was 3.22 µM. It also gave a TGI [14] of 13 µM, a GI50 [15] of 3.41 µM and a TGI [15] of 19.4 µM. The GI50 [16] was 1.48 µM, the TGI [16] was 11.5 µM and the GI50 [17] was 1.18 µM. The TGI [17] was 6.68 µM, the GI50 [18] was 2.1 µM and the TGI [18] was 18.5 µM. For the same compound, the GI50 [19] was 0.324 µM, the TGI [19] was 8.16 µM and the GI50 [20] was 2.84 µM. It also gave a TGI [20] of 12.5 µM, a GI50 [21] of 2.03 µM and a TGI [21] of 34.5 µM. For the same compound, the GI50 [22] was 2.27 µM, the TGI [22] was 11.9 µM and the GI50 [23] was 3.86 µM. The TGI [23] was 17.6 µM, the GI50 [24] was 2.74 µM and the TGI [24] was 21.3 µM. It also gave a GI50 [25] of 3.27 µM, a TGI [25] of 17.9 µM and a GI50 [26] of 1.65 µM. The TGI [26] was 12.8 µM, the GI50 [27] was 2.93 µM and the TGI [27] was 17 µM. It also gave a GI50 [28] of 5.37 µM, a TGI [28] of 25.2 µM and a GI50 [29] of 2.82 µM. It also gave a TGI [29] of 13.7 µM, a GI50 [30] of 3.95 µM and a TGI [30] of 24.3 µM. The GI50 [31] was 1.61 µM, the TGI [31] was 4.36 µM and the GI50 [32] was 1.76 µM. It also gave a TGI [32] of 13.5 µM, a GI50 [33] of 2.58 µM and a TGI [33] of 13.8 µM. For the same compound, the GI50 [34] was 2.17 µM, the TGI [34] was 12.2 µM and the GI50 [35] was 7.78 µM. The TGI [35] was 27.3 µM, the GI50 [36] was 3.42 µM and the TGI [36] was 16.2 µM. The GI50 [37] was 1.67 µM, the TGI [37] was 11.1 µM and the GI50 [38] was 10.3 µM. The TGI [38] was 22.4 µM, the GI50 [39] was 0.454 µM and the TGI [39] was 10.8 µM. The GI50 [40] was 7.93 µM, the TGI [40] was 21.9 µM and the GI50 [41] was 1.89 µM. For the same compound, the TGI [41] was 25 µM, the GI50 [42] was 10.2 µM and the TGI [42] was 22.6 µM. For the same compound, the GI50 [43] was 1.97 µM, the TGI [43] was 10.4 µM and the GI50 [44] was 2.69 µM. The TGI [44] was 17.5 µM, the GI50 [45] was 1.4 µM and the TGI [45] was 14.3 µM. The GI50 [46] was 1.77 µM, the TGI [46] was 12.5 µM and the GI50 [47] was 1.66 µM. The TGI [47] was 8.67 µM, the GI50 [48] was 4.95 µM and the TGI [48] was 17.3 µM. The GI50 [49] was 4.2 µM, the TGI [49] was 18.5 µM and the GI50 [50] was 2.05 µM. The TGI [50] was 22.9 µM, the GI50 [51] was 2.38 µM and the TGI [51] was 11.7 µM. It also gave a GI50 [52] of 1.62 µM, a TGI [52] of 15.1 µM and a GI50 [53] of 1.53 µM. It also gave a TGI [53] of 21.9 µM, a GI50 [54] of 3.48 µM and a TGI [54] of 19.8 µM. For the same compound, the GI50 [55] was 4.76 µM and the TGI [55] was 21.1 µM.
